Broadly, the Kd is a measure of binding affinity in units of concentration. Low values mean a tighter complex, high ones a looser complex. The term IC50 denotes the concentration that inhibits the measured activity by half.

Molecules are shown by their SMILES.

One series concerns the target T1, Lck (Homo sapiens, UniProt P06239).
T1 construct: purchased DiscoveRx Corporation (LeadHunter Discover Services, KINOMEscan)
Put plainly: KINOMEscan dissociation constant, Lck. The series is classed as binding. Here is the method:
(§1) Kinase enzyme binding activities of compounds disclosed herein may be determined using a proprietary assay which measures active site-directed competition binding to an immobilized ligand (Fabian, M. A. et al., Nature Biotechnol., 2005, 23:329-336). These assays may be conducted by DiscoverX (formerly Ambit; San Diego, Calif.). The percentage inhibition produced by incubation with a test compound may be calculated relative to the non-inhibited control.

The target of series [1] is T2, p38 MAPKα (Homo sapiens, UniProt Q16539).
T2 construct: purchased Invitrogen
Put plainly: KINOMEscan dissociation constant, p38 MAPKα. The series is classed as binding. On the procedure: as §1

Series [2] concerns the target T3, Syk (Homo sapiens, UniProt P43405).
T3 construct: purchased Invitrogen
Put plainly: KINOMEscan dissociation constant, Syk. The class given is binding. Here is the method: as §1

The target of series [3] is T2, p38 MAPKα. Put plainly: p38 MAPKα enzyme inhibition (Method 2), FRET Z-LYTE. The class given is biochemical. On the procedure:
(§2) The enzyme inhibitory activities of compounds disclosed herein are determined by FRET using synthetic peptides labelled with both donor and acceptor fluorophores (Z-LYTE, Invitrogen Ltd., Paisley, UK).
The inhibitory activities of test compounds against the p38 MAPKα isoform (MAPK14: Invitrogen), are evaluated indirectly by determining the level of activation/phosphorylation of the down-stream molecule, MAPKAP-K2. The p38 MAPKα protein (80 ng/mL, 2.5 μL) is mixed with the test compound (2.5 μL of either 4 μg/mL, 0.4 μg/mL, 0.04 μg/mL or 0.004 μg/mL) for 2 hr at RT. […] The mixture is incubated for 1 hr at RT. Development reagent (protease, 5 μL) is added for 1 hr prior to detection in a fluorescence microplate reader (Varioskan® Flash, ThermoFisher Scientific).
This method follows the same steps as Method 1 above, but utilises a higher concentration of the p38 MAPKα protein (2.5 μL of 200 ng/mL protein instead of 2.5 μL of 80 ng/mL protein) for mixing with the test compound.
(§3) In all cases, the site-specific protease cleaves non-phosphorylated peptide only and eliminates the FRET signal. Phosphorylation levels of each reaction are calculated using the ratio of coumarin emission (donor) over fluorescein emission (acceptor), for which high ratios indicate high phosphorylation and low ratios indicate low phosphorylation levels.

In the next series the target is T4, c-Src (Homo sapiens, UniProt P12931).
T4 construct: purchased Invitrogen
Put plainly: c-Src enzyme inhibition, FRET Z-LYTE. The class given is biochemical. Here is the method: as §2
(§4) The inhibitory activities of compounds of the invention against c-Src and Syk enzymes (Invitrogen), are evaluated in a similar fashion to that described hereinabove. The relevant enzyme (3000 ng/mL or 2000 ng/mL respectively, 2.5 μL) is incubated with the test compound (either 4 μg/mL, 0.4 μg/mL, 0.04 μg/mL, or 0.004 μg/mL, 2.5 μL each) for 2 hr at RT. The FRET peptides (8 μM, 2.5 μL), and appropriate ATP solutions (2.5 μL, 800 μM for c-Src, and 60 μM ATP for Syk) are then added to the enzymes/compound mixtures and incubated for 1 hr. Development reagent (protease, 5 μL) is added for 1 hr prior to detection in a fluorescence microplate reader (Varioskan® Flash, ThermoFisher Scientific).
as §3

Series [4] deals with T3, Syk. Put plainly: Syk enzyme inhibition, FRET Z-LYTE. The class given is biochemical. On the procedure: as §2, §4, §3
Another series deals with T5, GSK3α (Homo sapiens, UniProt P49840).
T5 construct: purchased Invitrogen
Put plainly: GSK3α enzyme inhibition (Method 2), FRET Z-LYTE. The class given is biochemical. On the procedure: as §2
The inhibitory activities of compounds of the invention against the GSK 3α enzyme isoform (Invitrogen), are evaluated by determining the level of activation/phosphorylation of the target peptide. The GSK3-α protein (500 ng/mL, 2.5 μL) is mixed with the test compound (2.5 μL at either 4 μg/mL, 0.4 μg/mL, 0.04 μg/mL, or 0.004 μg/mL) for 2 hr at RT. The FRET peptide (8 μM, 2.5 μL), which is a phosphorylation target for GSK3α, and ATP (40 μM, 2.5 μL) are then added to the enzyme/compound mixture and the resulting mixture incubated for 1 hr. Development reagent (protease, 5 μL) is added for 1 hr prior to detection in a fluorescence microplate reader (Varioskan® Flash, ThermoFisher Scientific).
as §3
This method follows the same steps as Method 1 above, but utilises a shorter period of mixing of the test compound (105 minutes instead of 2 hours) with the GSK3-α protein.

Series [5] relates to PBMCs. Put plainly: LPS-induced IL-8 release in PBMC cells. The series is classed as cell-based. Conditions: Homo sapiens, LPS-stimulated PBMCs, read-out: IC50 Values for Inhibition of Cytokine Release PBMCs IL-8. The essentials: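 Healthy-donor PBMCs isolated by density gradient were pretreated with compound for 2 h, then stimulated with 1 ng/mL LPS (E. coli 0111:B4) for 24 h at 37° C., 5% CO2. IL-8 and TNFα in supernatants measured by sandwich ELISA.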

The subject of series [6] is PBMCs. Put plainly: IL-2 release in CD3/CD28 stimulated PBMC cells. The series is classed as cell-based. To be noted: Homo sapiens, read-out: IC50 Values for Inhibition of Cytokine Release PBMCs IL-2. Here is the method:
(§5) PBMCs from healthy subjects are separated from whole blood using a density gradient (Lymphoprep, Axis-Shield Healthcare). Cells are added to a 96 well plate pre-coated with a mixture of CD3/CD28 monoclonal antibodies (0.3 μg/mL eBioscience and 3 μg/mL BD Pharmingen respectively). Compound at the desired concentration is then added to the wells and the plate left for 3 days under normal tissue culture conditions. Supernatants are harvested and IL-2 and IFN gamma release determined by Sandwich ELISA (Duo-set, R&D System). The IC50 is determined from the dose response curve.

The test system of series [7] is PBMCs. Put plainly: IFN gamma release in CD3/CD28 stimulated PBMC cells. To be noted: Homo sapiens, read-out: IC50 Values for Inhibition of Cytokine Release PBMCs IFNγ. The series is classed as cell-based. Here is the method: as §5
A further series has as its system HT29 cells. Put plainly: IL-1β-induced IL-8 release in HT29 cells. To be noted: Homo sapiens, HT-29; IL-1β-stimulated HT29 cells; read-out: IC50 Values for Inhibition of Cytokine Release HT29 cells IL-8. The class given is cell-based. On the procedure:
HT29 cells, a human colon adenocarcinoma cell line, are plated in a 96 well plate (24 hrs) and pre-treated with compounds at the desired concentration for 2 hours before addition of 5 ng/mL of IL-1β (Abcam) for 24 hours. Supernatants are harvested for IL-8 quantification by Sandwich ELISA (Duo-set, R&D System). The IC50 is determined from the dose response curve.

The nature of series [8]: Hydrolytic stability study. The class given is physicochemical. To be noted: DMSO/water (3:1), 1 mg/mL, experiment in which Example 2 was tested. Here is the method: Chemical stability of compounds of the invention was assessed in a mixture of DMSO and water (3:1) at a test compound concentration of 1 mg/mL
General HPLC Procedure • Agilent, Waters X-Select C18, 2.5 μm, 4.6×30 mm column, 4 min method, 5-95% • MeCN/water (0.1% formic acid). • Flow rate 2.5 ml/min. • Column Oven Temperature 40° C. • Detection 254 nm.
Sample Preparation • A 1.0 mg sample of test compound was dissolved in 1 mL of DMSO/water (3:1) and the resulting mixture was stirred at rt overnight.
Recording Stability • A 50 μL aliquot of the test solution was removed and analysed in duplicate by 5 μL HPLC injections. The peak area for the test compound (taken to be 100% product, 0% degradation) was recorded following manual integration of the corresponding UV trace. The area retention time was also recorded. • The test solution was heated to 60° C. internal temperature (65° C. block temperature), with stirring, and timing commenced once the target temperature had been reached. After 5 and 24 h, samples were removed and analysed by HPLC (5 μL injections). In all cases, 5 μL injections were used and the samples analysed in duplicate. • The peak areas for the test compounds were recorded at both subsequent timepoints and the % decomposition calculated from the % change in peak area over time.

T2 sequence (Q16539 whole entry): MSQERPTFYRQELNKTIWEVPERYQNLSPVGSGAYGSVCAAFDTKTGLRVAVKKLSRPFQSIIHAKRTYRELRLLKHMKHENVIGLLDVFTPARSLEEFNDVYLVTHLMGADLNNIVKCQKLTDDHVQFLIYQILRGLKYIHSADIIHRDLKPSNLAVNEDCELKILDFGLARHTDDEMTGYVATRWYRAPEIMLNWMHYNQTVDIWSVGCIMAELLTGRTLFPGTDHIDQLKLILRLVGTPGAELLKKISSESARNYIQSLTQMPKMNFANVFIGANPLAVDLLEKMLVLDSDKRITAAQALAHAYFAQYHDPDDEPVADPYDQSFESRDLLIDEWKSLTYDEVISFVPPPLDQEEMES
T1 sequence (P06239 whole entry): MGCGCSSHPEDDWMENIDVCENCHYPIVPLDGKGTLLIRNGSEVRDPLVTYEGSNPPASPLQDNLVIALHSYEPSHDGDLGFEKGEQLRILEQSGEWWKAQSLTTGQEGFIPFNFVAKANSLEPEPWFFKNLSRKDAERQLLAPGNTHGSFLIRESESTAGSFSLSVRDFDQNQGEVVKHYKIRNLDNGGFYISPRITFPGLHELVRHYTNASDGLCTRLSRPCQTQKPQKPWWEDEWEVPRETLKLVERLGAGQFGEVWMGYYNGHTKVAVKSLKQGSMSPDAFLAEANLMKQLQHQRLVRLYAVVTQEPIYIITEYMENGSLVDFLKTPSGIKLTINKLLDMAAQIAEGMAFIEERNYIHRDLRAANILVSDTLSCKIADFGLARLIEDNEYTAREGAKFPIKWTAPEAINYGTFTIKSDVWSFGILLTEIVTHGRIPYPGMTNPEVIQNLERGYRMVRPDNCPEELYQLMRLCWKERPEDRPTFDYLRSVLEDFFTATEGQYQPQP
T5 sequence (P49840 whole entry): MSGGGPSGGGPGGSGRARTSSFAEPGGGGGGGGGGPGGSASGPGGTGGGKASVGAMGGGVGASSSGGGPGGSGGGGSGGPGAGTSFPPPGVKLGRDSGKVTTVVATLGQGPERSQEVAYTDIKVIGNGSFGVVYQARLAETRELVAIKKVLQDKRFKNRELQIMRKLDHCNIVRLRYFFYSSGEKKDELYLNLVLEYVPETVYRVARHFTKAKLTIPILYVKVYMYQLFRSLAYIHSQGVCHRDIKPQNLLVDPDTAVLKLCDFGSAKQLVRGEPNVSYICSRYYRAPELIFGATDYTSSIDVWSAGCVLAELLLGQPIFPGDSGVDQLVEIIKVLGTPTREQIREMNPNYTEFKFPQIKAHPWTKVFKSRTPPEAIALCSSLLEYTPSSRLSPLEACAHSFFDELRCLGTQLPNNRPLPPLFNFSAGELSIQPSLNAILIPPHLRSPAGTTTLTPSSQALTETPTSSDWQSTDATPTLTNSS
T4 sequence (P12931 whole entry): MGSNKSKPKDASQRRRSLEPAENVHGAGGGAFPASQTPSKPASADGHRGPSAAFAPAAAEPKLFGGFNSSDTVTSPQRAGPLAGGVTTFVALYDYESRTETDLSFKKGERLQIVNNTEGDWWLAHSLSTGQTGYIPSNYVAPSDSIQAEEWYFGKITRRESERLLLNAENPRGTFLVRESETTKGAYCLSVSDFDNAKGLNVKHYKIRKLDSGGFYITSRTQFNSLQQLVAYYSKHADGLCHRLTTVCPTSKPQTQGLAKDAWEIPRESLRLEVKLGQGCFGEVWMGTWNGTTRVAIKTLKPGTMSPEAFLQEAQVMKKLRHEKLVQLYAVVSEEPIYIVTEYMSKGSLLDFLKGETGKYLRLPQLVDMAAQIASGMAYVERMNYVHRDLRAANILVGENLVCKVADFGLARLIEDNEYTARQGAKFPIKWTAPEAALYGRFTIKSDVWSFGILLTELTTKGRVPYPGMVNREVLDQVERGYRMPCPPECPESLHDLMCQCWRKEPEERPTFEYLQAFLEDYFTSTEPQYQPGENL

As for `COCCOCCOCCOc1cc(Nc2ncc3cc(-c4cc(C(=O)Nc5cc(C(C)(C)C)cc(NS(C)(=O)=O)c5OC)ccc4C)ccc3n2)cc(OC)c1` [Example 2, N-(5-(tert-Butyl)-2-methoxy-3-(methylsulfonamido)phenyl)-3-(2-((3-methoxy-5-(2-(2-(2-methoxyethoxy)ethoxy)ethoxy)phenyl)amino)quinazolin-6-yl)-4-methylbenzamide], the Kd on Lck turned out to be 13 nM; at p38 MAPKα [1] it was 15 nM; at Syk [2], 68 nM. In addition, the 50% inhibitory concentration (IC50) is 32 nM on p38 MAPKα [3]; 27 nM at c-Src; above 1250 nM against Syk [4]; above 12500 nM against GSK3α; 26 nM with PBMCs [5]; 126 nM in the series on PBMCs [6]. Besides, the IC50 is 53.3 nM in the series on PBMCs [7] and 78.7 nM with HT29 cells. For the same compound, the “% Parent Remaining” value in series [8] (60° C., 300 min) came out at 104.2%; in [8] (60° C., 1440 min), 102.9%; in [8] (time 0 min), 100%.

The values are drawn from patent publication US20170209445A1, “KINASE INHIBITORS” (Respivert Limited, priority 2014, published 2017).
